Laboratory results reported in patent US9751885B2, “Cyclopropanamine compound and use thereof” (Takeda Pharmaceutical Company Limited, priority 2012, dated 2017).
Counter-ions that a name gives are not always drawn. Like-named read-outs stand apart in the source and are kept apart here.

Legend:
[1] = system: white blood cell number, red blood cell number, platelet number; assay: Evaluation of blood cell number in mouse; assay type: in vivo; conditions: oral, Day 2 after administration
Method: Evaluation of Blood Cell Number in Mouse
(§1) Male ICR mice (hereinafter mice) were acclimated for at least one week in a rearing facility. The mice were raised in a rearing room with controlled temperature and humidity under a 12:12 hour light-dark cycle, and allowed free ingestion of feed and water.
The compounds were suspended in 0.5% methylcellulose/0.02% citric acid/distilled water and orally administered. All compounds were administered to the mice at a dose of 1 mg/kg, 10 mg/kg, 50 mg/kg or 100 mg/kg (body weight). On Day 2 after the administration of the compound, the whole blood was collected.
Using Sysmex XT-1800i (Sysmex Corporation), the white blood cell number, red blood cell number, and platelet number in the collected whole blood per unit volume were measured. The influence of each compound on each blood cell number was determined by comparing the number with the mean of each blood cell number of the mouse without administration of the compound (control group), and the numerical value of each blood cell number of a mouse with the administration of the compound is shown in percentage. percentage (%) of blood cell number of compound administration group as compared to control group=(mean blood cell number of compound administration group mean blood cell number of compound non-administration group)×100

[2] = Evaluation of hippocampal distribution in mouse; assay type: in vivo; conditions: male ICR mice, 10 mg/kg oral; for concentration at 0.5 h / Kp at 0.5 h: 0.5 hr after administration; for Kp at 0.5 h / Kp at 1 h: hippocampus/plasma, read-out: hippocampus/plasma concentration ratio (mean); for concentration at 1 h / Kp at 1 h: 1 hr after administration
Method: Evaluation of Hippocampal Distribution in Mouse
as §1
The compounds were suspended in 0.5% methylcellulose/0.02% citric acid/distilled water and orally administered. All compounds were administered to the mice at a dose of 10 mg/kg (body weight).
Blood samples were collected at 0.5 hr, or 1 hr, or 1.5 hr from compound administration, and the hippocampus was isolated simultaneously. The plasma concentration and hippocampus concentration of each test compound were measured by the LC/MS/MS method, the ratio (hippocampus/plasma concentration ratio) was calculated, and distribution into hippocampus was evaluated.

[3] = hippocampus, read-out: hippocampus concentration (mean)
[4] = plasma, read-out: plasma concentration (mean)

SMILES | platelet number, percentage of compound administration group compared to control group, mean ([1]; 10 mg/kg) | red blood cell number, percentage of compound administration group compared to control group, mean ([1]; 10 mg/kg) | white blood cell number, percentage of compound administration group compared to control group, mean ([1]; 10 mg/kg) | platelet number, percentage of compound administration group compared to control group, mean ([1]; 100 mg/kg) | red blood cell number, percentage of compound administration group compared to control group, mean ([1]; 100 mg/kg) | white blood cell number, percentage of compound administration group compared to control group, mean ([1]; 100 mg/kg) | concentration at 0.5 h [2, 3] | Kp at 0.5 h [2] | concentration at 0.5 h [2, 4] | concentration at 1 h [2, 3] | Kp at 1 h [2] | concentration at 1 h [2, 4]
O=C(NC1CCOCC1)c1cccc([C@@H]2C[C@H]2NCC2CC2)c1 (relative stereo) [Example 100, 3-(trans-2-((cyclopropylmethyl)amino)cyclopropyl)-N-(tetrahydro-2H-pyran-4-yl)benzamide hydrochloride] | 98.1% | 92.9% | 99.4% | 91.0% | 98.8% | 104.8% | 207 ng/g | 0.24 | 889 ng/mL |  |  | 
O=C(NC1CCC(F)(F)CC1)c1cccc([C@@H]2C[C@H]2NCC2CC2)c1 (relative stereo) [Example 102, 3-(trans-2-((cyclopropylmethyl)amino)cyclopropyl)-N-(4,4-difluorocyclohexyl)benzamide hydrochloride] | 97.7% | 99.5% | 107.0% | 94.7% | 104.9% | 116.8% |  |  |  | 482 ng/g | 1.84 | 268 ng/mL
Cc1cc(NC(=O)c2cccc([C@@H]3C[C@H]3NCC3CC3)c2)n(C)n1 (relative stereo) [Example 107, 3-(trans-2-((cyclopropylmethyl)amino)cyclopropyl)-N-(1,3-dimethyl-1H-pyrazol-5-yl)benzamide dihydrochloride] | 95.4% | 98.4% | 86.6% | 91.1% | 102.2% | 132.7% | 242 ng/g | 0.09 | 2560 ng/mL |  |  | 
O=C(NC1CCOCC1)c1cc([C@@H]2C[C@H]2NCC2CC2)ccc1F (relative stereo) [Example 111, 5-(trans-2-((cyclopropylmethyl)amino)cyclopropyl)-2-fluoro-N-(tetrahydro-2H-pyran-4-yl)benzamide hydrochloride] | 101.2% | 98.7% | 136.9% | 98.4% | 99.1% | 97.9% | 1300 ng/g | 1.59 | 823 ng/mL |  |  | 
Cc1nnc(NC(=O)c2cccc([C@@H]3C[C@H]3NCC3CCOCC3)c2)s1 (relative stereo) [Example 112, N-(5-methyl-1,3,4-thiadiazol-2-yl)-3-(trans-2-((tetrahydro-2H-pyran-4-ylmethyl)amino)cyclopropyl)benzamide dihydrochloride] | 92.8% | 99.4% | 112.0% | 86.3% | 102.0% | 136.1% | 614 ng/g | 0.36 | 1710 ng/mL |  |  | 
Cc1nnc(NC(=O)c2cccc([C@@H]3C[C@H]3NC3CCC(F)(F)CC3)c2)s1 (relative stereo) [Example 167, 3-(trans-2-((4,4-difluorocyclohexyl)amino)cyclopropyl)-N-(5-methyl-1,3,4-thiadiazol-2-yl)benzamide hydrochloride] | 105.3% | 102.5% | 86.4% | 103.2% | 102.4% | 68.2% |  |  |  | 915 ng/g | 0.74 | 1230 ng/mL
Cn1cc(NC(=O)c2cccc([C@@H]3C[C@H]3NC3CCC3)c2)cn1 (relative stereo) [Example 169, 3-(trans-2-(cyclobutylamino)cyclopropyl)-N-(1-methyl-1H-pyrazol-4-yl)benzamide dihydrochloride] | 102.2% | 105.1% | 99.1% | 100.7% | 103.7% | 109.2% |  |  |  | 396 ng/g | 0.56 | 707 ng/mL
Cn1cc(NC(=O)c2cccc([C@@H]3C[C@H]3NC3CCN(CC(F)(F)F)CC3)c2)cn1 (relative stereo) [Example 171, N-(1-methyl-1H-pyrazol-4-yl)-3-(trans-2-((1-(2,2,2-trifluoroethyl)piperidin-4-yl)amino)cyclopropyl)benzamide trihydrochloride] | 114.6% | 98.5% | 133.3% | 104.8% | 98.9% | 133.9% | 266 ng/g | 0.2 | 1310 ng/mL |  |  | 
Cc1nnc(NC(=O)c2cccc([C@@H]3C[C@H]3NC3CCC3)c2)s1 (relative stereo) [Example 174, 3-(trans-2-(cyclobutylamino)cyclopropyl)-N-(5-methyl-1,3,4-thiadiazol-2-yl)benzamide hydrochloride] | 97.9% | 95.4% | 97.4% | 93.7% | 100.2% | 100.6% |  |  |  | 1280 ng/g |  | 1250 ng/mL
O=C(NC1CCOCC1)c1cccc([C@@H]2C[C@H]2NC2CCC(F)(F)CC2)c1 (relative stereo) [Example 178, 3-(trans-2-((4,4-difluorocyclohexyl)amino)cyclopropyl)-N-(tetrahydro-2H-pyran-4-yl)benzamide hydrochloride] | 90.2% | 98.5% | 93.2% | 85.2% | 98.9% | 84.5% | 546 ng/g | 0.52 | 1050 ng/mL |  |  | 
